Tests used:
[1] = system: Cats After Traumatic Spinal Cord Injury; assay: Neurologic recovery in cats after traumatic spinal cord injury (C-7 weight-drop); format: in vivo, cat; parameters: key to total functional score (forelimb + hindlimb scores): sum of forelimb + hindlimb scores, each 0 = no movement to 5 = normal; details: for neurologic and motoric function compared with saline: after 6 weeks
Procedure: Cats anesthetized with sodium pentobarbital were subjected under aseptic conditions to a laminectomy to expose the C-7 spinal segment. With the dura intact, the spinal cord was traumatized by dropping a 20 g weight a distance of 30 cm through a guide tube onto a 10 square-millimeter impact plate. Drugs were given intravenously as a bolus injection (0.5 ml) at 1 and 3 hours after injury. A group of 9 animals was treated with 0.2mg/kg of orotyl-L-histidyl-L-prolinamide dissolved in 0.5 ml of physiological saline. A second group of 7 animals was given 1 mg/kg L-pyro-2-aminoapidyl-L-nistidyl-thiazolidine-4-carboxamide (also dissolved in 0.5 ml of physiological saline), which compound is referred to hereinafter as "compound A" and which has been described in the literature as an active TRH-modification product and has also been compared with the aforementioned orotylL-histidyl-L-prolinamide (c.f. Metcalf in Thyrotropin Releasing Hormone, E. C. Griffiths et al., eds., Raven Press, New York, 1983, pp. 315-26). A control group of 11 animals was treated with 0.5 ml of physiological saline per animal.
Neurologic function was evaluated weekly for six weeks by a neurologist who was unaware of the treatment group and assessed according to a six-point ordinal scale as described by Faden et al. in Neurology, Vol. 33, pp. 673-678 (1983). Forelimb and hindlimb function were scored separately as follows: 0 =absence of voluntary movement; 1 =spontaneous movement but inability to support weight; 2=ability to support weight but unable to walk; 3=ability to walk but with marked spasticity and/or ataxia; 4=ability to run but with mild spasticity or ataxia; and 5=normal motor function. Forelimb and hindlimb scores were then added together to obtain a total functional score.

[2] = system: brain stem compression in cats; details: cited from earlier work
[3] = system: experimental spinal cord injury; details: animal experiments; treatment during the first 24 hours following the trauma; cited from earlier work

In the case of NC(=O)C1CSCN1C(=O)[C@H](Cc1c[nH]cn1)NC(=O)[C@@H]1CCCC(=O)N1 (stereo partly drawn) [A, L-pyro-2-aminoapidyl-L-nistidyl-thiazolidine-4-carboxamide], the “neurologic and motoric function compared with saline” value ([1]; 1 mg/kg i.v. at 1 and 3 hours after injury) is reported as “did not differ significantly from those of saline”, the “total functional score (forelimb + hindlimb scores)” value (shortened to “total functional score”) ([1]; week 1 after injury, 1 mg/kg i.v. bolus at 1 and 3 hours after injury, n = 7) is reported as 4 and the “total functional score” value ([1]; week 2 after injury, 1 mg/kg i.v. bolus at 1 and 3 hours after injury, n = 7) is reported as 5. The “total functional score” value ([1]; week 3 after injury, 1 mg/kg i.v. bolus at 1 and 3 hours after injury, n = 7) was 5, the “total functional score” value ([1]; week 4 after injury, 1 mg/kg i.v. bolus at 1 and 3 hours after injury, n = 7) was 5 and the “total functional score” value ([1]; week 5 after injury, 1 mg/kg i.v. bolus at 1 and 3 hours after injury, n = 7) was 6. The “total functional score” value ([1]; week 6 after injury, 1 mg/kg i.v. bolus at 1 and 3 hours after injury, n = 7) was 6.
With NC(=O)[C@@H]1CCCN1C(=O)[C@H](Cc1c[nH]cn1)NC(=O)c1cc(=O)[nH]c(=O)[nH]1 [Compound of Invention, orotyl-L-histidyl-L-prolinamide] the “neurologic and motoric function compared with saline” value ([1]; 0.2 mg/kg i.v. at 1 and 3 hours after injury) was “significantly improved”, the “total functional score” value ([1]; week 1 after injury, 0.2 mg/kg i.v. bolus at 1 and 3 hours after injury, n = 9) was 6 and the “total functional score” value ([1]; week 2 after injury, 0.2 mg/kg i.v. bolus at 1 and 3 hours after injury, n = 9) was 6. The “total functional score” value ([1]; week 3 after injury, 0.2 mg/kg i.v. bolus at 1 and 3 hours after injury, n = 9) was 6, the “total functional score” value ([1]; week 4 after injury, 0.2 mg/kg i.v. bolus at 1 and 3 hours after injury, n = 9) was 7 and the “total functional score” value ([1]; week 5 after injury, 0.2 mg/kg i.v. bolus at 1 and 3 hours after injury, n = 9) was 8. The “total functional score” value ([1]; week 6 after injury, 0.2 mg/kg i.v. bolus at 1 and 3 hours after injury, n = 9) was 8.
For NC(=O)[C@@H]1CCCN1C(=O)[C@H](Cc1c[nH]cn1)NC(=O)[C@@H]1CCC(=O)N1 [TRH, L-pyroglutamyl-L-histidyl-L-prolinamide], the “effect on EEG alterations resulting from traumata of the brain” value [2] is listed as “dose-dependent positive effect” and the “recovery of the motoric function after experimental spinal cord injury” value [3] is listed as “significantly improves recovery of the motoric function”.

From patent US4906614A, “Method of treating posttraumatic nervous injuries with dipeptide derivatives” (Gruenenthal GmbH, priority 1985, dated 1990)
